Source: patent publication US8420670B2 (Abbott Laboratories, priority 2007, dated 2013)
Where a name gives a salt, the structure may show the parent alone.

Columns and labels:
human GlyT1c transporter = molecular target: T1, human GlyT1c transporter (Homo sapiens, UniProt P48067); assay: [3H]-(R)-NPTS radioligand binding assay using recombinant hGlyT1 expressing cell membranes; conditions: 0.5 nM [3H]-(R)-NPTS, apparent Ki via Cheng-Prusoff, read-out: [3H]-(R)-NPTS bindung Ki
T1 construct: expressed in transfected cells; host or cells: recombinant hGlyT1-expressing cells
T1 sequence (P48067 1-706): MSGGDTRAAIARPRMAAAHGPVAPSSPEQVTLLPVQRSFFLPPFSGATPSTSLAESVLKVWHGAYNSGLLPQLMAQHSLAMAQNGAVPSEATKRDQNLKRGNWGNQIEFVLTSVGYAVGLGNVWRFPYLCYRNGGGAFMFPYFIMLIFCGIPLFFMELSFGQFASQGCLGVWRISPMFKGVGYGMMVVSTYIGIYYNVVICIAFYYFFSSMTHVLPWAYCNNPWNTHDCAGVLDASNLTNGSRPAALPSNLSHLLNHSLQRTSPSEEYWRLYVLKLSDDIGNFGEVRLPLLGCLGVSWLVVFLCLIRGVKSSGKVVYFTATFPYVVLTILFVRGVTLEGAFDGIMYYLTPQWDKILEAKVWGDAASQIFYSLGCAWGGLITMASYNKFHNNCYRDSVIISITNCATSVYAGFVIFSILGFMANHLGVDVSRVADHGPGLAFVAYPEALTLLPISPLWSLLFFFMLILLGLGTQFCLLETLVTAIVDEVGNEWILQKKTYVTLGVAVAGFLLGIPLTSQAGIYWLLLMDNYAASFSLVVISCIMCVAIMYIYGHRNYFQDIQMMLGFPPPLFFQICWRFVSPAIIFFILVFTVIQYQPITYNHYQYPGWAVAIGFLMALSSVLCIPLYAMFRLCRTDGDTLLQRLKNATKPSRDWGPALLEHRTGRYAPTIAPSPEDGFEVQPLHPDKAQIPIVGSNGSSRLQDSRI
Procedure: 2. [^3H]-(R)-NPTS Radioligand Binding Assays using Recombinant hGlyT1 Expressing Cell Membranes:
Radioligand binding to human GlyT1c transporter-expressing membranes was measured in duplicate in a total volume of 200 μl in 96-well plates. To 100 μl of membrane suspension (yielding a final membrane protein concentration of 50 μg/ml) in assay buffer (120 mM NaCl, 2 mM KCl, 10 mM Hepes, 1 mM MgCl2, 1 mM CaCl2, pH 7.5) […] of [^3H]-(R)NPTS (0.5 nM final) were added in assay buffer. For competition experiments 10 μl of buffer or unlabeled compound solution obtained from dilution series of test compounds in DMSO followed. An intermediate 1:10 dilution in assay buffer yielded a final DMSO concentration of 1%. Non-specific binding was determined in the presence of 10 μM Org24598 (or its racemate Org24461) for [^3H]-(R)-NPTS. After incubation at room temperature for 1 h, the incubation mixture was harvested (Tomtec Mach III U Harvester) through 96-well GF/B filter plates (PerkinElmer), presoaked for 1 h with 40 μl per well of 0.1% polyethylene-imine (PEI). After washing twice with ice-cold 50 mM Tris-HCl pH 7.4 buffer, drying and addition of 35 μl scintillator (BetaplateScint, PerkinElmer) per well followed. The radioactivity was determined by liquid scintillation spectrometry in a MicroBeta (PerkinElmer) plate counter.
Data analysis: For binding of [^3H]-(R)-NPTS to cell membranes, the calculation of Kd and Bmax values from the saturation binding assays and the IC50 values from the displacement binding was performed by iterative non-linear regression analysis adapted from the ‘Ligand’ program (Munson and Rodbard, 1980). Radioligand displacement curves in absence or in presence of increasing concentrations of tested compounds were fitted using a one-site fit and the apparent Ki values were calculated from the IC50 values using the Cheng-Prusoff equation (Cheng and Prusoff 1973).

Human GlyT1c = molecular target: T2, Human GlyT1c (Homo sapiens, UniProt P48067); assay: Glycine uptake in recombinant hGlyT1 expressing cells; assay type: cell-based; conditions: hGlyT1c_5_CHO cells; [3H]-glycine uptake, 60-120 min
T2 construct: expressed in transfected cells; host or cells: CHO (hGlyT1c_5_CHO clone)
T2 sequence (P48067 1-706): T1 sequence (P48067 1-706)
Procedure: 1. Glycine Uptake in Recombinant hGlyT1 Expressing Cells:
Human GlyT1c expressing recombinant hGlyT1c—5_CHO cells were plated at 20,000 cells per well in 96 well Cytostar-T scintillation microplates (Amersham Biosciences) and cultured to sub-confluency for 24 h. For glycine uptake assays the culture medium was aspirated and the cells were washed once with 100 μl HBSS (Gibco BRL, #14025-050) with 5 mM L-Alanine (Merck #1007). 80 μl HBSS buffer were added, followed by 10 μl inhibitor or vehicle (10% DMSO) and 10 μl [^3H]-glycine (TRK71, Amersham Biosciences) to a final concentration of […] for initiation of glycine uptake. The plates were placed in a Wallac Microbeta (PerkinElmer) and continuously counted by solid phase scintillation spectrometry during up to 3 hours. Nonspecific uptake was determined in the presence of 10 μM Org24598. IC50 calculations were made by four-parametric logistic nonlinear regression analysis (GraphPad Prism) using determinations within the range of linear increase of [^3H]-glycine incorporation between 60 and 120 min.

Ki (human GlyT1c transporter)	IC50 (Human GlyT1c)	SMILES
≤ 0.01 µM	≤ 0.1 µM	COc1cccc2c(NC(CN(C)C)c3ccc(Cl)cc3)cc(C)nc12 (racemic) [Example 68, (rac)-1-(4-Chlorophenyl)-N*1*-(8-methoxy-2-methylquinolin-4-yl)-N*2*,N*2*-dimethylethane-1,2-diamine dihydrochloride]
≤ 1 µM	≤ 10 µM	Cc1cc(NCc2ccc(Cl)c(Cl)c2)c2cccc(S(=O)(=O)N(C)C)c2n1 [Example 1, 4-(3,4-Dichlorobenzylamino)-2-methylquinoline-8-sulfonic dimethylamide]
≤ 1 µM	≤ 1000 µM	Cc1cc(NCc2ccc(Cl)c(Cl)c2)c2cccc(S(N)(=O)=O)c2n1 [Example 2, 4-(3,4-Dichlorobenzylamino)-2-methylquinoline-8-sulfonamide]
≤ 1 µM	≤ 10 µM	Cc1cc(NCc2ccc(Cl)c(Cl)c2)c2cccc(S(=O)(=O)NC(C)C)c2n1 [Example 3, 4-(3,4-Dichlorobenzylamino)-2-methyl-quinoline-8-sulfonic isopropylamide]
≤ 1 µM	≤ 100 µM	Cc1cc(NCc2ccc(Cl)c(Cl)c2)c2cccc(S(=O)(=O)Nc3ccc(Cl)cc3)c2n1 [Example 4, 4-(3,4-Dichlorobenzylamino)-2-methylquinoline-8-sulfonic (4-chlorophenyl)-amide]
≤ 0.1 µM	≤ 0.1 µM	Cc1cc(NCc2ccc(Cl)c(Cl)c2)c2cccc(N)c2n1 [Example 5, N*4*-(3,4-Dichlorobenzyl)-2-methylquinoline-4,8-diamine]
≤ 0.1 µM	≤ 1 µM	Cc1cc(NCc2ccc(Cl)c(Cl)c2)c2cccc(N3CCOCC3)c2n1 [Example 6, (3,4-Dichlorobenzyl)-(2-methyl-8-morpholin-4-yl-quinolin-4-yl)-amine hydrobromide]
≤ 1 µM	≤ 1 µM	Cc1cc(NCc2ccc(Cl)c(Cl)c2)c2cccc(N3CCCC3)c2n1 [Example 7, (3,4-Dichlorobenzyl)-(2-methyl-8-pyrrolidin-1-yl-quinolin-4-yl)-amine hydrochloride]
≤ 1 µM	≤ 10 µM	Cc1cc(NCc2ccc(Cl)c(Cl)c2)c2cccc(NS(=O)(=O)c3ccccc3)c2n1 [Example 8, N-[4-(3,4-Dichlorobenzylamino)-2-methylquinolin-8-yl]-phenylsulfonamide]
≤ 0.1 µM	≤ 1 µM	CCNc1cccc2c(NCc3ccc(Cl)c(Cl)c3)cc(C)nc12 [Example 9, N*4*-(3,4-Dichlorobenzyl)-N*8*-ethyl-2-methylquinolin-4,8-diamine]
≤ 1 µM	≤ 100 µM	Cc1cc(NCc2ccc(Cl)c(Cl)c2)c2cccc(NC(=O)c3ccccc3)c2n1 [Example 10, N-[4-(3,4-Dichlorobenzylamino)-2-methylquinolin-8-yl]-benzamide]
≤ 10 µM	≤ 100 µM	Cc1cc(NCc2ccc(Cl)c(Cl)c2)c2cccc(N(S(C)(=O)=O)S(C)(=O)=O)c2n1 [Example 11, N-[4-(3,4-Dichlorobenzylamino)-2-methylquinolin-8-yl]-bis-methanesulfonamide]
≤ 1 µM	≤ 10 µM	Cc1cc(NCc2ccc(Cl)c(Cl)c2)c2cccc(NS(C)(=O)=O)c2n1 [Example 12, N-[4-(3,4-Dichlorobenzylamino)-2-methylquinolin-8-yl]-methanesulfonamide]
≤ 1 µM	≤ 1 µM	CC(=O)Nc1cccc2c(NCc3ccc(Cl)c(Cl)c3)cc(C)nc12 [Example 13, N-[4-(3,4-Dichlorobenzylamino)-2-methylquinolin-8-yl]-acetamide]
≤ 10 µM	≤ 10 µM	Cc1cc(NCc2ccc(Cl)c(Cl)c2)c2cccc(NC(=O)C(C)C)c2n1 [Example 14, N-[4-(3,4-Dichlorobenzylamino)-2-methylquinolin-8-yl]-isobutyramide]
≤ 0.1 µM	≤ 1 µM	CNc1cccc2c(NCc3ccc(Cl)c(Cl)c3)cc(C)nc12 [Example 15, N*4*-(3,4-Dichlorobenzyl)-N*8*-methyl-2-methylquinolin-4,8-diamine]
≤ 0.1 µM	≤ 1 µM	Cc1cc(NCc2ccc(Cl)c(Cl)c2)c2cccc(N(C)C)c2n1 [Example 16, N*4*-(3,4-Dichlorobenzyl)-N*8*-dimethyl-2-methylquinolin-4,8-diamine hydrochloride]
≤ 1 µM	≤ 10 µM	Cc1ccc(S(=O)(=O)N2CCN(c3cccc4c(NCc5ccc(Cl)c(Cl)c5)cc(C)nc34)CC2)cc1 [Example 17, (3,4-Dichlorobenzyl)-{2-methyl-8-[4-(toluene-4-sulfonyl)-piperazin-1-yl]-quinolin-4-yl}-amine]
≤ 0.1 µM	≤ 1 µM	Cc1cc(NCc2ccc(Cl)c(Cl)c2)c2cccc(N3CCNCC3)c2n1 [Example 18, (3,4-Dichlorobenzyl)-(2-methyl-8-piperazin-1-yl-quinolin-4-yl)-amine dihydrochloride]
≤ 0.1 µM	≤ 0.1 µM	Cc1cc(NCc2ccc(Cl)c(Cl)c2)c2cccc(OCCNC(=O)OC(C)(C)C)c2n1 [Example 19, {2-[4-(3,4-Dichlorobenzylamino)-2-methylquinolin-8-yloxy]-ethyl}-carbamate tert-butyl ester]
≤ 0.01 µM	≤ 1 µM	Cc1cc(NCc2ccc(Cl)c(Cl)c2)c2cccc(OCCN)c2n1 [Example 20, [8-(2-Aminoethoxy)-2-methylquinolin-4-yl]-(3,4-dichlorobenzyl)-amine dihydrochloride]
≤ 0.01 µM	≤ 0.1 µM	Cc1cc(NCc2ccc(Cl)c(Cl)c2)c2cccc(OCCNS(C)(=O)=O)c2n1 [Example 21]
≤ 0.01 µM	≤ 0.1 µM	Cc1cc(NCc2ccc(Cl)c(Cl)c2)c2cccc(OCCNC(=O)c3ccccc3)c2n1 [Example 22]
≤ 0.01 µM	≤ 1 µM	Cc1cc(NCc2ccc(Cl)c(Cl)c2)c2cccc(OCCNS(=O)(=O)c3ccccc3)c2n1 [Example 23, hydrochloride]
≤ 0.1 µM	≤ 1 µM	CC(=O)NCCOc1cccc2c(NCc3ccc(Cl)c(Cl)c3)cc(C)nc12 [Example 24, N-{2-[4-(3,4-Dichlorobenzylamino)-2-methylquinolin-8-yloxy]-ethyl}-acetamide]
≤ 1 µM	≤ 1 µM	Cc1cc(NCc2ccc(Cl)c(Cl)c2)c2cccc(OCCNC(=O)C(C)C)c2n1 [Example 26, N-{2-[4-(3,4-Dichlorobenzylamino)-2-methylquinolin-8-yloxy]-ethyl}-isobutyramide]
≤ 0.01 µM	≤ 0.01 µM	CCS(=O)(=O)NCCOc1cccc2c(NCc3ccc(Cl)c(Cl)c3)cc(C)nc12 [Example 27, Ethanesulfonic {2-[4-(3,4-Dichloro-benzylamino)-2-methylquinolin-8-yloxy]-ethyl}-amide]
